Like-named read-outs stand apart in the source and are kept apart here.
Columns and labels:
rat caudal artery = assay: Rat caudal artery ring contractile force (vasoconstrictory activity); design: species or system rat (male Wistar)
Protocol: Male Wistar rats (150-250 g) were obtained from Charles River Italia (Milano, Italy) and killed by decapitation. Ventral caudal artery was isolated, placed in Tyrode solution at room temperature and cleaned of extraneous fatty and connective tissue under a dissection microscope. All vessels were cut into rings 2 mm long, mounted on a custom-built plexiglass support by means of two intraluminal tungsten wires and placed in 20 mL double-jacketed organ baths filled with Tyrode solution of the following composition (mM): NaCl 125, KCl 5, CaCl2 2.7, MgSO4 1, KH2PO4 1.2, NaHCO3 25 and glucose 11, maintained at 37° C., pH 7.35, bubbled with 95% O2 and […]. The endothelium was removed by gently rubbing the lumen of the rings with a very thin rough-surfaced tungsten wire (caudal artery). The mechanical activity of the rings was detected by means of an isometric force transducer (Ugo Basile, Comerio, Italy) coupled to a pen recorder (Ugo Basile, Comerio, Italy). Rings were passively stretched to impose a resting tension (2 g) and were allowed to equilibrate for 60 min. After equilibration, each ring was repeatedly simulated with both KCl (90 mM) and phenylephrine (10 μM) until reproducible responses were obtained. To verify the absence of the endothelium, rings contracted with 1 μM phenylephrine were exposed to […] carbamylcholine. […] Each compound was tested for the vasoconstrictor activity at a concentration of 50 μM, which has been previously reported to be the one evoking the maximal response to norbormide. The contractile responses to the compounds were expressed as percent of the 90 mM KCl response.

Sprague Dawley rats = assay: In vivo lethality, oral gavage; design: species or system rat (Sprague Dawley); settings: 40 mg/Kg, rat, n = 2
Protocol: Sprague Dawley rats (150-200 g) were used to appraise the rodenticidal activity of the compounds put forward for in vivo evaluation. Briefly, prior to administration the compounds were dissolved in 0.2 M hydrochloric acid (5% DMSO overall), to the desired dose, and without delay either injected intravenously, via the tail, or orally gavaged. All treated animals were housed in a quiet room and monitored every minute (i.v) or every 15 min (oral) to verify early signs of toxicity.

[1] = Table 1, read-out: Vasoconstriction: maximum contractile effect as a % of 90 mM KCl contraction
[2] = Table 7, compounds of formula (V)

SMILES	Vasoconstriction: maximum contractile effect as a % of 90 mM KCl contraction (rat caudal artery; Table 1, compound at 50 μM)	other results
CC(=O)Nc1ccc(C=CC(=O)OCCN2C(=O)C3C4C=C(C(O)(c5ccccc5)c5ccccn5)C(C4=C(c4ccccc4)c4ccccn4)C3C2=O)cc1 (stereo not drawn) [Compound 337, N-[2′-(4″-Acetamidocinnamoyloxy)ethyl]-5-(α-hydroxy-α-2-pyridylbenzyl)-7-(α-2-pyridylbenzylidene)-5-norbornene-2,3-dicarboximide]		Emax (rat caudal artery; [1]): 97%; Vasoconstriction: maximum contractile effect as a % of 90 mM KCl contraction (rat caudal artery; Table 4, pre-cleavage, n = 3): 97%; In vivo lethality (oral) (Sprague Dawley rats): yes^h
O=C(C=Cc1ccccc1)NCCN1C(=O)C2C3C=C(C(O)(c4ccccc4)c4ccccn4)C(C3=C(c3ccccc3)c3ccccn3)C2C1=O (stereo not drawn) [Compound 365, N-2′-Cinnamamidoethyl-5-(α-hydroxy-α-2-pyridylbenzyl)-7-(α-2-pyridylbenzylidene)-5-norbornene-2,3-dicarboximide]		Vasoconstriction: maximum contractile effect as a % of 90 mM KCl contraction (rat caudal artery; Table 2, compound at 50 μM): 43%
O=C(CN1C(=O)C2C3C=C(C(O)(c4ccccc4)c4ccccn4)C(C3=C(c3ccccc3)c3ccccn3)C2C1=O)OCC=Cc1ccccc1 (stereo not drawn) [Compound 371, N-Cinnamoxycarbonylmethyl-5-(α-hydroxy-α-2-pyridylbenzyl)-7-(α-2-pyridylbenzylidene)-5-norbornene-2,3-dicarboximide]		Emax (rat caudal artery; Table 3, read-out: Vasoconstriction: maximum contractile effect as a % of 90 mM KCl contraction): 0%; Vasoconstriction: maximum contractile effect as a % of 90 mM KCl contraction (rat caudal artery; Table 4, pre-cleavage, n = 3): 0%; In vivo lethality (oral) (Sprague Dawley rats): no^h
CN(C)c1ccc(C=CC(=O)OCCN2C(=O)C3C4C=C(C(O)(c5ccccc5)c5ccccn5)C(C4=C(c4ccccc4)c4ccccn4)C3C2=O)cc1 (centres unmarked) [Compound 131]	30%	
CCCC(=O)OCCN1C(=O)C2C3C=C(C(O)(c4ccccc4)c4ccccn4)C(C3=C(c3ccccc3)c3ccccn3)C2C1=O (stereo not drawn) [Compound 110, N-2′-Butanoyloxyethyl-5-(α-hydroxy-α-2-pyridylbenzyl)-7-(α-2-pyridylbenzylidene)-5-norbornene-2,3-dicarboximide]	≧132%	
Cc1ccc(C=CC(=O)OCCN2C(=O)C3C4C=C(C(O)(c5ccccc5)c5ccccn5)C(C4=C(c4ccccc4)c4ccccn4)C3C2=O)cc1 (centres unmarked) [Compound 128]	42%	
O=C(CCC(=O)Oc1ccccc1)OCCN1C(=O)C2C3C=C(C(O)(c4ccccc4)c4ccccn4)C(C3=C(c3ccccc3)c3ccccn3)C2C1=O (stereo not drawn) [Compound 204, 5-(α-Hydroxy-α-2-pyridylbenzyl)-N-2′-(monophenyl)succinoyloxyethyl-7-(α-2-pyridylbenzylidene)-5-norbornene-2,3-dicarboximide]	0%	
O=C(/C=C/C=C/c1ccccc1)OCCN1C(=O)C2C3C=C(C(O)(c4ccccc4)c4ccccn4)C(C3=C(c3ccccc3)c3ccccn3)C2C1=O (stereo not drawn) [Compound 187, 5-(α-Hydroxy-α-2-pyridylbenzyl)-N-[2′-(5″-phenyl-2″E,4″E-pentadienoyloxy)ethyl]-7-(α-2-pyridylbenzylidene)-5-norbornene-2,3-dicarboximide]	0%	
O=C(OCOCCN1C(=O)C2C3C=C(C(O)(c4ccccc4)c4ccccn4)C(C3=C(c3ccccc3)c3ccccn3)C2C1=O)C(c1ccccc1)c1ccccc1 (stereo not drawn) [Compound 201, N-[2′-(Diphenylacetyloxymethyloxy)ethyl]-5-(α-hydroxy-α-2-pyridylbenzyl)-7-(α-2-pyridylbenzylidene)-5-norbornene-2,3-dicarboximide]		Emax (rat caudal artery; [1]): ≥ 132%
O=C(C=Cc1ccc2ccccc2c1)OCCN1C(=O)C2C3C=C(C(O)(c4ccccc4)c4ccccn4)C(C3=C(c3ccccc3)c3ccccn3)C2C1=O (stereo not drawn) [Compound 188, 5-(α-Hydroxy-α-2-pyridylbenzyl)-N-[2′-(2″-naphthylacryloyloxy)ethyl]-7-(α-2-pyridylbenzylidene)-5-norbornene-2,3-dicarboximide]	0%	
CC(C)(C)C(=O)OCCN1C(=O)C2C3C=C(C(O)(c4ccccc4)c4ccccn4)C(C3=C(c3ccccc3)c3ccccn3)C2C1=O (stereo not drawn) [Compound 109, 5-(α-Hydroxy-α-2-pyridylbenzyl)-N-2′-pivaloyloxyethyl-7-(α-2-pyridylbenzylidene)-5-norbornene-2,3-dicarboximide]	≧132%	
O=C1C2C3C=C(C(O)(c4ccccc4)c4ccccn4)C(C3=C(c3ccccc3)c3ccccn3)C2C(=O)N1CCCCO (stereo not drawn) [Compound 105, N-4′-Hydroxybutyl-5-(α-hydroxy-α-2-pyridylbenzyl)-7-(α-2-pyridylbenzylidene)-5-norbornene-2,3-dicarboximide]		Vasoconstriction: maximum contractile effect as a % of 90 mM KCl contraction (rat caudal artery; [2]): 100%; Vasoconstriction: maximum contractile effect as a % of 90 mM KCl contraction (rat caudal artery; n = 3, Table 8): 100%
O=C(OCCN1C(=O)C2C3C=C(C(O)(c4ccccc4)c4ccccn4)C(C3=C(c3ccccc3)c3ccccn3)C2C1=O)c1ccccc1 (stereo not drawn) [Compound 113, N-2′-Benzoyloxyethyl-5-(α-hydroxy-α-2-pyridylbenzyl)-7-(α-2-pyridylbenzylidene)-5-norbornene-2,3-dicarboximide]	≧132%	
CC(O)CN1C(=O)C2C3C=C(C(O)(c4ccccc4)c4ccccn4)C(C3=C(c3ccccc3)c3ccccn3)C2C1=O (stereo not drawn) [Compound 103, N-2′-Hydroxypropyl-5-(α-hydroxy-α-2-pyridylbenzyl)-7-(α-2-pyridylbenzylidene)-5-norbornene-2,3-dicarboximide]		Vasoconstriction: maximum contractile effect as a % of 90 mM KCl contraction (rat caudal artery; [2]): 67%; Vasoconstriction: maximum contractile effect as a % of 90 mM KCl contraction (rat caudal artery; n = 3, Table 8): 67%
O=C(Cc1ccccc1)OCCN1C(=O)C2C3C=C(C(O)(c4ccccc4)c4ccccn4)C(C3=C(c3ccccc3)c3ccccn3)C2C1=O (stereo not drawn) [Compound 117, 5-(α-Hydroxy-α-2-pyridylbenzyl)-N-2′-phenylacetyloxyethyl-7-(α-2-pyridylbenzylidene)-5-norbornene-2,3-dicarboximide]	≧132%	
O=C(CCc1ccccc1)OCCN1C(=O)C2C3C=C(C(O)(c4ccccc4)c4ccccn4)C(C3=C(c3ccccc3)c3ccccn3)C2C1=O (stereo not drawn) [Compound 119, N-2′-Dihydrocinnamoyloxyethyl-5-(α-hydroxy-α-2-pyridylbenzyl)-7-(α-2-pyridylbenzylidene)-5-norbornene-2,3-dicarboximide]	≧132%	
COc1cccc(C(=O)OCCN2C(=O)C3C4C=C(C(O)(c5ccccc5)c5ccccn5)C(C4=C(c4ccccc4)c4ccccn4)C3C2=O)c1 (stereo not drawn) [Compound 115, 5-(α-Hydroxy-α-2-pyridylbenzyl)-N-2′-m-methoxybenzoyloxyethyl-7-(α-2-pyridylbenzylidene)-5-norbornene-2,3-dicarboximide]	52%	
CCCCCCCCCCCC(=O)OCN1C(=O)C2C3C=C(C(O)(c4ccccc4)c4ccccn4)C(C3=C(c3ccccc3)c3ccccn3)C2C1=O (stereo not drawn) [Compound 11, N-Dodecanoyloxymethyl-5-(α-hydroxy-α-2-pyridylbenzyl)-7-(α-2-pyridylbenzylidene)-5-norbornene-2,3-dicarboximide]		Emax (rat caudal artery; [1]): 0%; Vasoconstriction: maximum contractile effect as a % of 90 mM KCl contraction (rat caudal artery; Table 4, pre-cleavage, n = 3): 0%
COc1ccc(C=CC(=O)OCCN2C(=O)C3C4C=C(C(O)(c5ccccc5)c5ccccn5)C(C4=C(c4ccccc4)c4ccccn4)C3C2=O)cc1OC (centres unmarked) [Compound 132]	120%	
COc1ccccc1C(=O)OCCN1C(=O)C2C3C=C(C(O)(c4ccccc4)c4ccccn4)C(C3=C(c3ccccc3)c3ccccn3)C2C1=O (stereo not drawn) [Compound 114, 5-(α-Hydroxy-α-2-pyridylbenzyl)-N-2′-o-methoxybenzoyloxyethyl-7-(α-2-pyridylbenzylidene)-5-norbornene-2,3-dicarboximide]	≧132%	
COc1cccc(C=CC(=O)OCCN2C(=O)C3C4C=C(C(O)(c5ccccc5)c5ccccn5)C(C4=C(c4ccccc4)c4ccccn4)C3C2=O)c1 (stereo not drawn) [Compound 125, 5-(α-1-hydroxy-α-2-pyridylbenzyl)-N-[2′-(3″-methoxycinnamoyloxy)ethyl]-7-(α-2-pyridylbenzylidene)-5-norbornene-2,3-dicarboximide]	80%	
COc1ccc(C(=O)OCCN2C(=O)C3C4C=C(C(O)(c5ccccc5)c5ccccn5)C(C4=C(c4ccccc4)c4ccccn4)C3C2=O)cc1 (stereo not drawn) [Compound 116, 5-(α-Hydroxy-α-2-pyridylbenzyl)-N-2′-p-methoxybenzoyloxyethyl-7-(α-2-pyridylbenzylidene)-5-norbornene-2,3-dicarboximide]	≧132%	

— patent publication US9198420B2, “Rodenticidal norbormide analogues” (priority 2012, dated 2015)
